Data taken from patent US10030006B2, “Coumarin based Hsp90 inhibitors with urea and ether substituents” (University of Kansas, priority 2013, dated 2018).
Read-outs that look alike come from different tables or passages of the source.

Assays:
Type in all cases: cell-based
[1] = test system: SKBr3 (estrogen receptor negative, Her2 over-expressing breast cancer cells); experiment: Anti-proliferation assay (MTS/PMS, 72 h), SKBr3; details: Table 6, substituted phenyl ureas, Breast Cancer, read-out: IC50 SKBr3
Description: (§1) Cells were maintained in a 1:1 mixture of Advanced DMEM/F12 (Gibco) supplemented with non-essential amino acids, L-glutamine (2 mM), streptomycin (500 μg/mL), penicillin (100 units/mL), and 10% FBS. Cells were grown to confluence in a humidified atmosphere (37° C., 5% CO2), seeded (2000/well, 100 μL) in 96-well plates, and allowed to attach overnight. Compound at varying concentrations in DMSO (1% DMSO final concentration) was added, and cells were returned to the incubator for 72 h. At 72 h, the number of viable cells was determined using an MTS/PMS cell proliferation kit (Promega) per the manufacturer's instructions. Cells incubated in 1% DMSO were used at 100% proliferation, and values were adjusted accordingly. IC50 values were calculated from separate experiments performed in triplicate using GraphPad Prism.
(§2) The anti-proliferative activity of these compounds is evaluated against two breast cancer cell lines, SKBr3 (estrogen receptor negative, Her2 over-expressing breast cancer cells) and MCF-7 (estrogen receptor positive breast cancer cells).

[2] = test system: MCF-7 (estrogen receptor positive breast cancer cells); experiment: Anti-proliferation assay (MTS/PMS, 72 h), MCF-7; details: Table 6, substituted phenyl ureas, Breast Cancer, read-out: IC50 MCF-3
Description: as §1, §2

HCT-116 = experiment: Anti-proliferation assay, HCT-116; details: Table 6, substituted phenyl ureas
Description: as §1

PC-3 = experiment: Anti-proliferation assay, PC-3; details: Table 6, substituted phenyl ureas, Prostate Cancer
Description: as §1

A-549 = experiment: Anti-proliferation assay, A-549; details: Table 6, substituted phenyl ureas
Description: as §1

MDA1986 = experiment: Anti-proliferation assay, MDA1986; details: Table 6, substituted phenyl ureas, HSNCC
Description: as §1

JMAR = experiment: Anti-proliferation assay, JMAR; details: Table 6, substituted phenyl ureas, HSNCC
Description: as §1

MDAMB231 = experiment: Anti-proliferation assay, MDAMB231; details: Table 6, substituted phenyl ureas, Tri-Neg
Description: as §1

DRO81-1 = experiment: Anti-proliferation assay, DRO81-1; details: Table 6, substituted phenyl ureas; Thyroid
Description: as §1

MRC5 = experiment: Anti-proliferation assay, MRC5 (normal)
Description: as §1

HMLE = experiment: Anti-proliferation assay, HMLE (normal); details: Table 6, substituted phenyl ureas
Description: as §1

[3] = Homo sapiens, MRC5, Table 6, substituted phenyl ureas

Compound	IC50 ([1]; Homo sapiens, SK-BR-3) [nM]	IC50 ([2]; Homo sapiens, MCF7) [nM]	IC50 (HCT-116; Homo sapiens, HCT-116) [nM]	IC50 (PC-3; Homo sapiens, PC-3) [nM]	IC50 (A-549; Homo sapiens, A549) [nM]	IC50 (MDAMB231; Homo sapiens, MDA-MB-231) [nM]	IC50 (MDA1986; MDA1986) [nM]	IC50 (JMAR; JMAR) [nM]	IC50 (DRO81-1) [nM]	IC50 (MRC5; [3]) [nM]	IC50 (HMLE; HMLE) [nM]	other results
Cc1c(OC2CCN(C)CC2)ccc2cc(NC(=O)Nc3ccc(C#N)cc3)c(=O)oc12 [p-CN, 1-(4-cyanophenyl)-3-(8-methyl-7-((1-methylpiperidin-4-yl)oxy)-2-oxo-2H-chromen-3-yl)urea]	370	430	570	48	43	440	1620	3700	280	5700	4000	
Cc1c(OC2CCN(C)CC2)ccc2cc(NC(=O)Nc3ccc(C(F)(F)F)cc3)c(=O)oc12 [p-CF3, 1-(8-methyl-7-((1-methylpiperidin-4-yl)oxy)-2-oxo-2H-chromen-3-yl)-3-(4-(trifluoromethyl)phenyl)urea]	350	470	800	60	130	430	900	3600	640	3100	15500	
Cc1ccc(NC(=O)Nc2cc3ccc(OC4CCN(C)CC4)c(C)c3oc2=O)cc1 [p-CH3, 1-(8-methyl-7-((1-methylpiperidin-4-yl)oxy)-2-oxo-2H-chromen-3-yl)-3-(p-tolyl)urea]	270	290	59	810	17	910	3200	3500	16300	6600	3300	
Cc1c(OC2CCN(C)CC2)ccc2cc(NC(=O)Nc3ccc(Cl)c(Cl)c3)c(=O)oc12 [3,4-dichloro, 1-(3,4-dichlorophenyl)-3-(8-methyl-7-((1-methylpiperidin-4-yl)oxy)-2-oxo-2H-chromen-3-yl)urea]	640	1780	17000	2040	1820	2900	2600	6700	13200	2100	1500	
CC(=O)c1ccc(NC(=O)Nc2cc3ccc(OC4CCN(C)CC4)c(C)c3oc2=O)cc1 [p-COCH3]									13300			IC50 [1]: 1520 nM; IC50 [2]: 1720 nM; IC50 (HCT-116): 250 nM; IC50 (PC-3): 2750 nM; IC50 (A-549): 240 nM; IC50 (MDA1986): 3400 nM; IC50 (JMAR): 11900 nM; IC50 (MDAMB231): 750 nM; IC50 (MRC5; Table 6, substituted phenyl ureas): 7700 nM; IC50 (HMLE): 8000 nM
Cc1cc(C)cc(NC(=O)Nc2cc3ccc(OC4CCN(C)CC4)c(C)c3oc2=O)c1 [3,5-dimethyl, 1-(3,5-dimethylphenyl)-3-(8-methyl-7-((1-methylpiperidin-4-yl)oxy)-2-oxo-2H-chromen-3-yl)urea]	300	340	170	1350	52	650	90	3400	8400	5900	13800	

Second part, led by results:

IC50 ([1]; Homo sapiens, SK-BR-3) [nM]	IC50 ([2]; Homo sapiens, MCF7) [nM]	IC50 (HCT-116; Homo sapiens, HCT-116) [nM]	IC50 (PC-3; Homo sapiens, PC-3) [nM]	IC50 (A-549; Homo sapiens, A549) [nM]	IC50 (MDAMB231; Homo sapiens, MDA-MB-231) [nM]	Compound	IC50 (MDA1986; MDA1986) [nM]	IC50 (JMAR; JMAR) [nM]	IC50 (DRO81-1) [nM]	IC50 (MRC5; [3]) [nM]	IC50 (HMLE; HMLE) [nM]	other results
360	700	150	52	66	370	Cc1c(OC2CCN(C)CC2)ccc2cc(NC(=O)Nc3ccc(-c4ccccc4)cc3)c(=O)oc12 [p-phenyl, 1-([1,1′-biphenyl]-4-yl)-3-(8-methyl-7-((1-methylpiperidin-4-yl)oxy)-2-oxo-2H-chromen-3-yl)urea]	850	930	270	2000	3600	
400	700	240	150	180	2200	Cc1c(OC2CCN(C)CC2)ccc2cc(NC(=O)Nc3ccc(Oc4ccccc4)cc3)c(=O)oc12 [p-phenoxyl, 1-(8-methyl-7-((1-methylpiperidin-4-yl)oxy)-2-oxo-2H-chromen-3-yl)-3-(4-phenoxyphenyl)urea]	6000	5300	1800	11300	> 25000	
